According to paper PMC10815436, “Toward New AQP4 Inhibitors: ORI-TRN-002” (International Journal of Molecular Sciences, 2024):
pIC50, pKd: −log10 of the molar value. Where “and” joins values, the source holds several entries; their conditions need not be identical. Equal values may be shown once. Read-outs that look alike come from different tables or passages of the source. Values belong to the molecule of their own block, whether it stands above or below them.

How the values were obtained:
human AQP4 = details: cited from earlier work
[1] = Octanol-water distribution coefficient at pH 7.4 (Origenis BRAINstorm platform, affinity chromatography); type: physicochemical
Source text: (§1) To evaluate the potential drug-like properties of the electronic homologue ORI-TRN-002, we measured the compound’s properties in the Origenis BRAINstorm™ platform. This platform uses affinity chromatography under standard conditions and standard calibrants to measure compound properties with high accuracy and reproducibility. […] It supersedes the solubility and free fraction limitations of the Aeromics/Simcere drug AER-270 [21] (Figure 2). ORI-TRN-002 requires no prodrug approach and serves as an ideal starting point for further optimization.
(§2) The chemical structures of the three AQP4 inhibitors studied and their measured physico-chemical properties (logD at pH 7.4, log10 of molar human serum albumin affinity constant, percent human plasma protein binding, log10 of human alpha acid glycoprotein affinity constant, unbound fraction in liver, and unbound fraction in hepatocytes). TEXT PRINTED IN THE PICTURE: TGN-020: logD: 0.04; logKaHSA: 3.51; hPPB%: 68.20; logKaRSA: 2.72; logKaAGP: 1.18; fu, liver: 1.00; fu, hep: 0.92 | AER-270: logD: 3.31; logKaHSA: 5.46; hPPB%: 99.50; logKaRSA: 5.26; logKaAGP: 6.94; fu, liver: <0.01; fu, hep: <0.01 | ORI-TRN-002: logD: -0.07; logKaHSA: 2.99; hPPB%: 39.20; logKaRSA: 2.89; logKaAGP: 1.88; fu, liver: 1.00; fu, hep: 0.95

[2] = Unbound fraction in liver (BRAINstorm); type: in vitro ADME
Source text: as §1, §2

[3] = Unbound fraction in hepatocytes (BRAINstorm); type: in vitro ADME
Source text: as §1, §2

rat serum albumin = rat serum albumin (Rattus norvegicus, UniProt P02770); assay: Rat serum albumin affinity (BRAINstorm affinity chromatography); type: binding; details: for Kd: read-out: logKaRSA (rat serum albumin affinity) (converted)
rat serum albumin, sequence (P02770 25-608): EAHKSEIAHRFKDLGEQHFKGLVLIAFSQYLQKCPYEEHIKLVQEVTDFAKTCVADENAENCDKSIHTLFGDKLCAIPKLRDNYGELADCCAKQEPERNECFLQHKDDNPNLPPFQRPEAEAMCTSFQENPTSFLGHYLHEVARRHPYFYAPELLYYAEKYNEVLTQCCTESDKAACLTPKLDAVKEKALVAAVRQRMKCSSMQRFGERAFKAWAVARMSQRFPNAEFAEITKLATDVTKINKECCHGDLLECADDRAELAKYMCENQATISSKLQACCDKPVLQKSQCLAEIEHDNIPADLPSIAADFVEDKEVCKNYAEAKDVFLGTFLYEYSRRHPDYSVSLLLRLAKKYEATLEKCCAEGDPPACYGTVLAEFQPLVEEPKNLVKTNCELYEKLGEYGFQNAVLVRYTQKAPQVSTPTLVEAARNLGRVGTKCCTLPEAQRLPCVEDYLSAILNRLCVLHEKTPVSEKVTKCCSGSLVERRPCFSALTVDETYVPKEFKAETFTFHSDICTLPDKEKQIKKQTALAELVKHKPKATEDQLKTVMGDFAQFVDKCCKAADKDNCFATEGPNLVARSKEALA
Source text: as §1, §2

human serum albumin = human serum albumin (Homo sapiens, UniProt P02768); assay: Human serum albumin affinity (BRAINstorm affinity chromatography); type: binding; details: for Kd: read-out: logKaHSA (log10 of molar human serum albumin affinity constant) (converted)
human serum albumin, sequence (P02768 25-609): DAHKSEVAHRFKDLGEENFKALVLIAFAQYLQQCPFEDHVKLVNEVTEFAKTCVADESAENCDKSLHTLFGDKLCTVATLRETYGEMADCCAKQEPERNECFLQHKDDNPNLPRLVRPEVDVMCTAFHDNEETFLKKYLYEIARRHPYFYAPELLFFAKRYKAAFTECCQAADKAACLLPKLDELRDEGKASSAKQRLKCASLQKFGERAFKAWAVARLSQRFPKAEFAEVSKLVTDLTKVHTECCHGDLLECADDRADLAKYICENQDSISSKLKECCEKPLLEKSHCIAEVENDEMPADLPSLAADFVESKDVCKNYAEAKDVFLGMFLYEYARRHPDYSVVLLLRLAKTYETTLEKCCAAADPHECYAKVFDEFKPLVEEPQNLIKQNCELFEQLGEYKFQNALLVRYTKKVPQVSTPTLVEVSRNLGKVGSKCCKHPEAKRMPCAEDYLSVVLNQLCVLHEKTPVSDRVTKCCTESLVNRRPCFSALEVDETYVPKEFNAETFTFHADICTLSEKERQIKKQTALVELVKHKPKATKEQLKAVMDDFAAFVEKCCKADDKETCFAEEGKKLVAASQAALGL
Source text: as §1, §2

[4] = Percentage of binding to human plasma proteins (BRAINstorm); type: in vitro ADME
Source text: as §1, §2

AQP4 = system: AQP4; design: method as in PMID 32506554, PMID 30934923; details: cited from earlier work
cerebral edema [5] = details: cited from earlier work
cerebral edema [6] = system: cerebral edema; design: method as in doi:10.1097/01.ccm.0000473851.20338.3b, PMID 29635589; details: various traumatic brain injury models; cited from earlier work
AQP4.M23 = system: AQP4.M23; design: method as in PMID 17178220; details: oocytes; cited from earlier work
rat AQP4 = rat AQP4 (Rattus norvegicus, UniProt P47863); assay: Osmotic water permeability of rat AQP4-expressing Xenopus laevis oocytes (high-resolution volume recording, hyposmotic challenge); details: IC50 for rAQP4 (AQP4-mediated water permeability), rat AQP4 in Xenopus laevis oocytes, different concentrations, n = 6, mean ± SEM
rat AQP4, sequence (P47863 23-323): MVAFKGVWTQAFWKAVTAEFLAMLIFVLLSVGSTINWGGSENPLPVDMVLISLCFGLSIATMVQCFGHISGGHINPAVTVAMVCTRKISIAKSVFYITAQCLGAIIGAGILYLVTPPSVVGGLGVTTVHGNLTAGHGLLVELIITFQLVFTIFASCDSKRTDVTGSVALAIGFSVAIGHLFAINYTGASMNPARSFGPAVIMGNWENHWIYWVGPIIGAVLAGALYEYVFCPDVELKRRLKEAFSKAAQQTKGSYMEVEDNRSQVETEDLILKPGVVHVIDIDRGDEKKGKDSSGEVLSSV
Source text: To resolve ORI-TRN-002’s inhibitory effect on AQP4, rat AQP4 (rAQP) was heterologously expressed in Xenopus laevis oocytes, and the AQP4-mediated water permeability was quantified. Following the introduction of an abrupt hyposmotic challenge (−100 mOsm), we determined the osmotic water permeability of the oocytes during the continuous recording of the oocyte volume with a high-resolution volume recording system. This experimental setup allows for the osmotic gradient to be introduced at a faster rate than the rate of cell volume change and sufficiently fast data acquisition to obtain several data points at the initial linear part of the cell volume change, which is required to obtain the osmotic water permeability of an AQP-expressing oocyte. The native oocyte membrane has a low inherent water permeability, thus the uninjected oocytes display a negligible background (see Figure 3A for summarized data on osmotic water permeabilities; compare 0.21 ± 0.13 × 10^−3 cm s^−1, n = 9, for uninjected oocytes to 3.80 ± 0.33 × 10^−3 cm s^−1, n = 11, for AQP4-expressing oocytes; representative volume traces shown as insets)). The oocytes were exposed to the novel drugs (or control solution) for 60 min. prior to the determination of water permeability. The established AQP4 blockers, TGN-020 and AER-270, served as positive controls. […]

AQP4-expressing oocytes = assay: Membrane potential of treated AQP4-expressing oocytes (toxicity check); type: cell-based, Xenopus laevis
Source text: Following the introduction of an abrupt hyposmotic challenge (−100 mOsm), we determined the osmotic water permeability of the oocytes during the continuous recording of the oocyte volume with a high-resolution volume recording system. This experimental setup allows for the osmotic gradient to be introduced at a faster rate than the rate of cell volume change and sufficiently fast data acquisition to obtain several data points at the initial linear part of the cell volume change, which is required to obtain the osmotic water permeability of an AQP-expressing oocyte. […] The oocytes were exposed to the novel drugs (or control solution) for 60 min. prior to the determination of water permeability. The established AQP4 blockers, TGN-020 and AER-270, served as positive controls.

[7] = liver, read-out: fu, liver (unbound fraction in liver)
[8] = read-out: fu, hep (unbound fraction in hepatocytes)
[9] = human plasma proteins, read-out: hPPB% (percent human plasma protein binding) (converted)

SMILES: O=C(Nc1cc(C(F)(F)F)cc(C(F)(F)F)c1)c1cc(Cl)ccc1O [AER-270, N-[3,5-bis (trifluoromethyl)phenyl]-5-chloro-2-hydroxybenzamide]
- maximal inhibition of human AQP4 (human AQP4): 20%
- chromatographic logD [1]: 3.31
- fraction unbound [2]: < 0.01
- fraction unbound [3]: < 0.01
- pKd (rat serum albumin): 5.26
- pKd (human serum albumin): 5.46
- fraction unbound ([4]; plasma): 0.005

- chromatographic logD ([1]; octanol/water): 0.04
- fraction unbound [2, 7]: 1
- fraction unbound [3, 8]: 0.92
- Kd (rat serum albumin): 1910 µM
- Kd (human serum albumin): 309 µM
- fraction unbound [4, 9]: 0.318
SMILES: O=C(Nc1nncs1)c1cccnc1 [TGN-020, 2-(nicotinamide)-1,3,4-thiadiazole]

SMILES: CCCCNc1cc(C(=O)Nc2ccncc2)cc(S(N)(=O)=O)c1Oc1ccccc1 [AqB013]
- block of AQP4-mediated water permeability (AQP4): not be effective blockers

SMILES: CC[N+](CC)(CC)CC [tetraethylammonium (TEA), tetraethylammonium]
- block of AQP4-mediated water permeability (AQP4): not be effective blockers

SMILES: CCCCNc1cc(C(=O)O)cc(S(N)(=O)=O)c1Oc1ccccc1 [bumetanide]
- block of AQP4-mediated water permeability (AQP4): not be effective blockers

SMILES: O=C(Nc1cc(C(F)(F)F)cc(C(F)(F)F)c1)c1cc(Cl)ccc1OP(=O)(O)O [AER-271, 2-([3,5-Bis(trifluoromethyl)phenyl]carbamoyl)-4-chlorophenyl dihydrogen phosphate]
- AQP4-mediated cerebral edema (cerebral edema [5]; rodent model of transient MCAO): selectively and effectively reduced
- neurological outcome (cerebral edema [5]; rodent model of transient MCAO): improved
- swelling in two models of CNS injury complicated by cerebral edema (cerebral edema [5]; water intoxication and ischemic stroke modeled by MCAO): reduce swelling
- reduction of cerebral edema (cerebral edema [6]): ineffective

SMILES: CCOc1ccc2nc(S(N)(=O)=O)sc2c1 [Ethoxyzolamide]
- inhibition of AQP4.M23 (AQP4.M23): inhibit

- chromatographic logD ([1]; octanol/water): -0.07
- fraction unbound [2, 7]: 1
- fraction unbound [3, 8]: 0.95
- Kd (rat serum albumin): 1290 µM
- pIC50 (rat AQP4): ~5.52 and 5.54
- Kd (human serum albumin): 1020 µM
- fraction unbound [4, 9]: 0.608
SMILES: O=c1[nH]c(-c2cccnc2)nc2[nH]ncc12 [ORI-TRN-002, 6-(pyridin-3-yl)-1H-pyrazolo[3,4-d]pyrimidin-4(5H)-one]
- membrane potential of treated oocytes (AQP4-expressing oocytes; 20 μM acute application, 10 min, non-treated -25.6 ± 0.50 mV, n = 9): −26.9 ± 0.61 mV
- membrane potential of treated oocytes (AQP4-expressing oocytes; 20 µM, 60 min, non-treated −26.2 ± 0.62 mV, n = 12): −24.4 ± 0.74 mV

SMILES: CC(=O)Nc1nnc(S(N)(=O)=O)s1 [acetazolamide]
- block of AQP4-mediated water permeability (AQP4): not be effective blockers
